Experiments:
human neutrophils = assay: Superoxide production by neutrophils (cytochrome c reduction); assay type: cell-based; settings: Neutrophil, approximately 5×10^5 cells/ml, all activators, read-out: concentration for 50% inhibition of superoxide production
Description: Superoxide production by cells was quantitated from superoxide-mediated reduction of cytochrome c, monitored as an increase in absorbance at 550 nm and an extinction coefficient at 21,000 M^-1 cm^-1. Measurements were carried out at 37° C. using approximately 5×10^5 neutrophils per ml, stirred continuously. The cells were allowed to equilibrate several minutes prior to the addition of effectors. Conditions for individual experiments are described in figure legends and tables. Controls utilizing added superoxide dismutase verified that the cytochrome c reduction was mediated by superoxide.

[1] = test system: Ca++/calmodulin-dependent protein kinase; assay: Phosphorylation of the 20K protein in platelets; assay type: cell-based; settings: concentrations which completely abolished phosphorylation of the 40K protein
NADPH-oxidase = biological target: T1, NADPH-oxidase (Homo sapiens, UniProt P04839); assay: NADPH-oxidase activity in isolated neutrophil membranes; assay type: biochemical
T1 construct: endogenous in cells
Description: Superoxide production was also measured spectrophotometrically in isolated membranes (see below) by the method of Curnutte et al (N. Eng. J. Med. 293, 628-632) also using superoxide dismutase inhibitable reduction of cytochrome c. Assays utilized paired cuvettes with the reference cuvette containing 30 μg/ml superoxide dismutase. Both cuvettes also contained 65 mM potassium phosphate pH 7.0, 125 mM sucrose, 81 μM cytochrome c, and 0.1 mg of membrane protein. The reaction was initiated with 200 μM (final) NADPH in both cuvettes. The treatments are as described in Table I. All spectrophotometric measurements were carried out using a Cary […] spectrophotometer.
Neutrophil membranes activated for superoxide production were prepared as described previously (Hohn, J. Clin. Invest. 55, 707-713, 1975). Neutrophils (10^8) were suspended in PBS-glucose and incubated in a shaking waterbath at 37° C. Cells were activated by the addition of 10 μg PMA/ml and allowed to incubate 5 min. The reaction was stopped by adding an equal volume of ice-cold PBS. The cells were centrifuged at 400×g for 4 min at 4° C. and resuspended in PBS-glucose containing 120 μM FAD. The cells were lysed by homogenization with a teflon-glass homogenizer. The homgenate was centrifuged at 250×g for 10 min. to remove unlysed cells. […]

neutrophils = assay: Cell association of radiolabeled sphinganine with neutrophils; assay type: in vitro ADME, human; settings: 3, 10, 30 μM plus albumin carrier, 2.5×10^6 cells, 5 min
Description: To determine how much inhibitor was actually becoming associated with the cells, radiolabeled sphinganine (3, 10, 30 μM) plus albumin carrier was incubated with neutrophils (2.5×10^6 cells) for 5 min (i.e. a time longer than that needed to achieve inhibition). After washing by centrifugation, the cell-associated radioactivity was measured. Approximately 20% of the added sphinganine became cell-associated. Therefore, because of partitioning between the albumin and the cells, the cellular concentration of sphinganine was considerably less than the total.

protein kinase C = assay: Mixed micellar protein kinase C activity assay for lysosphingolipids (Table VI); assay type: biochemical
Description: TABLE VI: Inhibition of protein kinase C activity and phorbol-dibutyrate binding by lysosphingolipids. […] The remaining two columns show the observed effects of the lysosphingolipids of protein kinase C activity and phorbol diester binding in vitro and in human platelets. Lysogangliosides were prepared from their parental gangliosides by hydrolysis in methanolic KOH esentially as described by Neuenhofer et al. in Bioch. 24, 525, 1985. During this preparation, with approximately 90-95% conversion, the N-acetate of N-acetylneuraminic acid is partially hydrolyzed. Fatty acids were partitioned into heptane after acidification of the methanolic reaction mixture. Galactosylsphingosine, glucosylsphingosine, and lactosylsphingosine were prepared as previously described for galactosylsphingosine (Radin, Lipids 9, 358, 1974) Sphingosylphosphorylcholine was prepared by hydrolysis in HCl-butanol (Kaller, Biochemische Zeitschrift 334, 451, 1961). The purity of the lyso derivatives (greater than 90%) was checked by thin layer chromatography (TLC) on silica gel H plates developed in chloroform/methanol/2N NH4 OH (65/35/9) and visualized by ninhydrin reaction for N-lyso compounds, by α-naphthol/sulfuric acid for both gangliosides and lysogangliosides,and by a phospholipid spray for sphingosylphosphorylcholine. Lysosphingolipids were quantitated by reaction of the amine group with trinitrobenzenesulfonate. Gangliosides and lysosphingolipids were also quantitated by reaction with anthrone. The lysosphingolipids were then studied for their effect on protein kinase C activity. Protein kinase C was purified to near homogeneity by the method of Wolf et al. (J. Biol. Chem. 260, 15718, 1985), and activity was measured using a mixed micellar assay (described herein). Lysosphingolipids were added directly in aqueous solution, and allowed to equilibrate with the Triton X-100 (0.3% w/v) mixed micelles containing 6 mol % phosphatidylserine and 2 mol % dioleoylglycerol. […] Phorbol-dibutyrate binding was measured in a mixed micellar assay. Lysosphingolipids inhibited phorbol-dibutyrate binding to protein kinase C in the presence of Triton X-100 mixed micelles containing 20 mol % phosphatidylserine. […] The difference is related to the higher concentration of phosphatidylserine used in the binding assay, as both activity and binding show a high cooperative dependence on phosphatidylserine, which modulates the inhibition by lysosphingolipids. Phorbol-dibutyrate binding to human platelets and 40 kDa phosphorylation in platelets were carried out as described above. Lysosphingolipids inhibited phorbol dibutyrate binding to human platelets at concentrations in the 10-50 μM range. Inhibition of 40 kDa phosphorylation occurred over the same concentration range.

human platelets = assay: [3H]PDBu binding to human platelets
Description: Human platelets, prepared as described above, were suspended at a concentration of 2.5×10^8 platelet/ml. 50 μl of the platelets were then incubated for five minutes with the indicated concentration of sphingosine in Eppendorf microfuge tubes. Sphingosine was prepared in 50% ethanol at a concentration 100-fold the final concentration so that ethanol was kept at 0.5%. [^3 H]PDBu was added to 10 nM and incubated with the platelets at 37° for 10 minutes. The samples were then filtered on Whatman GF/C filters pre-washed with 5 ml of modified Tyrode's buffer containing 0.1% bovine serum albumin, washed with 10 ml of the same buffer, dried, and counted in 10 ml of Aquasol II in an LKB beta counter. Non-specific binding was determined in the presence of 1 μM unlabelled PDBu and subtracted from the total counts to yield the specific binding.

| SMILES | IC50 (human neutrophils) | inhibition of phosphorylation of the 20K protein in platelets [1] | Cytochrome c Reduction (NADPH-oxidase; 18 μM sphinganine, membranes from PMA-pretreated cells) | inhibition of NADPH-dependent superoxide generation in isolated membranes (NADPH-oxidase; concentrations which inhibited the cellular response) | added sphinganine that became cell-associated (neutrophils) | Inhibition of Protein Kinase C, concentration giving 50% inhibition, (mol %) (protein kinase C; 0.3% Triton X-100, 1 mol % = 43 μM) | IC50 (protein kinase C; 0.3% Triton X-100 mixed micelles, 6 mol % phosphatidylserine, 2 mol % dioleoylglycerol, read-out: Inhibition of Protein Kinase C, concentration giving 50% inhibition) | inhibition of [3H]PDBu binding to whole human platelets (human platelets) |
| --- | --- | --- | --- | --- | --- | --- | --- | --- |
| CCCCCCCCCCCCCCC[C@@H](O)[C@@H](N)CO (relative stereo) [Sphinganine, erythro-dihydrosphingosine] | ~1 µM | lack of inhibition | 27 nmols/min/mg/protein | No inhibition | Approximately 20% | – | – | – |
| CCCCCCCCCCCCC/C=C/[C@@H](O)[C@@H](N)CO [sphingosine] | – | – | – | – | – | 1.9 mol % | 80 µM | able to inhibit this binding |

From US4937232A, “Inhibition of protein kinase C by long-chain bases” (priority 1988, dated 1990)
